Measurements as given in patent US20210395694A1, “METHOD FOR PROMOTING PRODUCTION OF EXOSOMES AND/OR EXTRACELLULAR VESICLES” (ExoCoBio Inc., priority 2019, published 2021).

Columns and labels:
[1] = tested on: Human adipose-derived stem cells; assay: Exosome CD63 content by flow cytometry (PE MFI against a human CD63 standard curve); format: cell-based; details: CD63 content per mL; compared to the untreated control group; FIG. 3
Protocol: Human adipose-derived stem cells were suspended in a-MEM culture medium containing 10% fetal bovine serum (FBS), 100 units/mL penicillin and 100 μg/mL streptomycin, and then seeded into a 6-well plate at a density of 6,000 cells/cm^2 and cultured in an incubator at 37° C. under 5% CO2. For ascorbic acid-treated groups, 24 hours after seeding, ascorbic acid was added to the culture medium at a concentration of 10 μg/mL, 30 μg/mL and 100 μg/mL, respectively.
In all of the ascorbic acid-treated groups and the untreated group, when the adipose-derived stem cells reached a confluency of 80% or more, the culture medium was replaced with α-MEM medium containing 100 units/mL penicillin and 100 μg/mL streptomycin (hereinafter referred to as “serum-free medium” or “SFM”), or α-MEM medium containing 2% FBS from which FBS-derived exosomes and extracellular vesicles have been removed, 100 units/mL penicillin and 100 μg/mL streptomycin (hereinafter referred to as “extracellular vesicles-depleted medium” or “EDM”). In the ascorbic acid-treated groups, ascorbic acid was added to each of the serum-free medium and the extracellular vesicles-depleted medium at a concentration of 10 μg/mL, 30 μg/mL and 100 μg/mL, respectively. […] After completion of recovery of the conditioned medium, the cells were counted using a cell counter. […]

[2] = tested on: Human adipose-derived stem cells; assay: Nanoparticle tracking analysis (NTA) of exosomes isolated from conditioned medium of stem cells cultured with ascorbic acid; format: cell-based
Protocol: Human adipose-derived stem cells were suspended in a-MEM culture medium containing 10% fetal bovine serum (FBS), 100 units/mL penicillin and 100 μg/mL streptomycin, and then seeded into a 6-well plate at a density of 6,000 cells/cm^2 and cultured in an incubator at 37° C. under 5% CO2. For ascorbic acid-treated groups, 24 hours after seeding, ascorbic acid was added to the culture medium at a concentration of 10 μg/mL, 30 μg/mL and 100 μg/mL, respectively. In all of the ascorbic acid-treated groups and the untreated group, when the adipose-derived stem cells reached a confluency of 80% or more, the culture medium was replaced with α-MEM medium containing 100 units/mL penicillin and 100 μg/mL streptomycin (hereinafter referred to as “serum-free medium” or “SFM”), or α-MEM medium containing 2% FBS from which FBS-derived exosomes and extracellular vesicles have been removed, 100 units/mL penicillin and 100 μg/mL streptomycin (hereinafter referred to as “extracellular vesicles-depleted medium” or “EDM”). […] After completion of recovery of the conditioned medium, the cells were counted using a cell counter. […] The particle size and concentration of the isolated exosomes were measured by nanoparticle tracking analysis (NTA) instrument (purchased from Malvern).

O=C1O[C@H]([C@@H](O)CO)C(O)=C1O [ascorbic acid]
content of the exosomes (i.e., the content of CD63) [1]: remarkably increased | productivity (i.e., the number of exosome particles per mL) ([2]; compared with the control group not treated with ascorbic acid, FIG. 2): increased by approximately four times or more | particle size distribution of the exosomes ([2]; stem cells pre-treated and cultured in medium containing ascorbic acid vs medium not containing ascorbic acid, FIG. 1 (0, 30, 100 μg/mL)): more uniform particle size distribution
